# Test results from patent US20200323954A1, “METHODS AND COMPOSITIONS FOR REDUCING GUT ISCHEMIA/REPERFUSION-INDUCED INJURY” (PanTheryx, Inc., priority 2019, published 2020).
# “Also recorded” adds a separate entry of the source.
# Key:
# renal tissue = assay: Gut I/R model, renal tissue; details: kidney, I/R + PSTI 20 μg/kg ip, mean ± SEM
# bladder cancer = details: cited from earlier work
# AGS cells [1] = assay: Cell viability (MTT) assay after hypoxia/reperfusion (H/R); type: cell-based, human; details: for cell viability in the MTT assay: 4 h hypoxia + 24 h reperfusion
# Procedure: (§1) Hypoxia (Ischemia)/Normoxia (Reperfusion) (H/R) protocols for in vitro studies: For all experiments AGS, Caco-2 and RIE1 cells were set up in plates as described in specific methods. Cells were used at 70-80% confluence for cell injury/death assessment and as confluent monolayers for permeability studies. To induce “ischemia”, cells were placed in a hypoxic incubator (2% 02) for specified time and to mimic reperfusion, cells were placed back in a normoxic (21% 02) incubator for specified time. All treatments were duplicated in a second set of identical plates under normoxic conditions throughout the same test period as controls. To determine optimum conditions for the in vitro studies, pilot studies were performed.
# Cell viability (MTT) assay: Cell viability following H/R was assessed using an MTT assay (3-(4,5-dimethylthiazol-2-yl)-2,5-diphenyltetrazolium bromide) according to Marshall et al., Growth Regul. 1995; 5(2):69-84. The principal of the assay is that viable cells contain NAD(P)H-dependent oxidoreductase enzymes which reduce the MTT reagent to formazan which can be measured spectrophotometrically. At the end of the H/R period, 5 mg/ml MTT in PBS was added to each well of the 96 well plates and incubated at 37° C. for 4 hours, the medium was replaced with 150 μl of DMSO and the absorbance measured at 490 nm. Cell viability was expressed as percentage of the equivalent normoxic control, all results are expressed as mean+/−SEM of six wells.
# (§2) Example 1A: Dose response study: To examine the effect of PSTI on H/R-induced cell injury in vitro, cells were set up in 96 well plates and pre-incubated in SFM containing glucose, with or without 5, 10 or 15 μg/ml PSTI for 1 hour (i.e. PSTI pre-treatment). These concentrations of PSTI were chosen based on previous studies examining cell migration (Marchbank et al., 2007, Am J Pathol 171(5):1462-73). The medium was replaced with SFM without glucose and placed in the hypoxia incubator for 4 hours. At the end of the hypoxia period, medium was replaced with SFM containing glucose for 24 hours at normoxia for the reperfusion period.
# Example 1B: Efficacy of PSTI given pre-, during- or post-hypoxic period. The potential benefits of giving PSTI prior to, during or following the hypoxic period were compared. Cells were either pre-treated with 10 μg/ml PSTI for the 1 hour before hypoxia (Pre), treated with 10 μg/ml PSTI during hypoxia (During) or treated with 10 μg/ml PSTI during the reperfusion stage (Post). Cell Viability (MTT assay) and cell damage (LDH assay) were assessed. Cells were pre-treated with 10 μg/ml PSTI for the 1 hour before hypoxia (Pre), at the time of the start of hypoxic period (During), or added at the start of the reperfusion stage (Post). Cell Viability (MTT assay) and cell damage (LDH assay) were assessed.
# [2] = test system: human colonic carcinoma HT29 cells; details: HT29 cells in vitro; cited from earlier work
# AGS cells [3] = assay: Lactate dehydrogenase (LDH) cell damage assay after H/R; type: cell-based, human
# Procedure: as §1
# Lactate dehydrogenase (LDH) assay: Cell damage was assessed using the activity of LDH released into the cell culture medium. LDH is a cytosolic enzyme present in many different cell types. Plasma membrane damage releases LDH into the cell culture media. At the end of the H/R period, supernatant was collected from all wells and LDH activity determined using a Pierce LDH Cytotoxicity Assay Kit (Thermo Fisher Scientific, Hemel Hempstead, UK) following manufacturer's instructions. Results are expressed as LDH activity and presented as mean+/−SEM of six wells.
# as §2, with “At the end of the hypoxia period, medium was replaced with SFM containing glucose for 24 hours at normoxia for the reperfusion period.” left out
# Example 1B: Efficacy of PSTI given pre-, during- or post-hypoxic period. […] Cell Viability (MTT assay) and cell damage (LDH assay) were assessed. […] Cell Viability (MTT assay) and cell damage (LDH assay) were assessed.
# [4] = normoxia, PSTI 10 microgram per ml
substance,measurement,setting,value
pancreatic secretory trypsin inhibitor (DSLGREAKCYNELNGCTKIYDPVCGTDGNTYPNECVLCFENRKRQTSILIQKSGPC; listed as Homo sapiens) [PSTI],Baxα,renal tissue,5.61 ± 0.63 pg/μg total protein
same,Bcl2,renal tissue,66.37 ± 4.89 pg/μg total protein
same,Caspase 3 activity,renal tissue,0.069 ± 0.019 Change in absorbance
same,Caspase 9 activity,renal tissue,0.053 ± 0.010 Change in absorbance
same,Claudin 1,renal tissue,0.154 ± 0.016 pg/μg total protein
same,MDA,renal tissue,0.47 ± 0.047 nmol/μg of protein
same,ZO1,renal tissue,0.151 ± 0.008 pg/μg total protein
same,hSP70,renal tissue,36.6 ± 2.96 pg/μg total protein
same,migration and invasion,bladder cancer,causes autocrine-mediated migration and invasion in bladder cancer
same,phosphorylation of signalling proteins,bladder cancer,"phosphorylates the EGF receptor, Akt2 and Akt3, and ERK1 and ERK2"
same,cell viability in the MTT assay,"AGS cells [1]; AGS, PSTI 10 μg/ml 1 h before hypoxia (Pre), % of normoxic control, H/R without PSTI 52±2%",78±2%
same,cell viability in the MTT assay,"AGS cells [1]; AGS, PSTI 10 μg/ml during hypoxia period",66±3%
same,cell viability in the MTT assay,"AGS cells [1]; AGS, PSTI 10 μg/ml during the post-hypoxia period",49±1%
same,improvement of survival after H/R,"AGS cells [1]; AGS, RIE1 and Caco-2 cells, hypoxia/reperfusion 4 h+24 h, PSTI 10 μg/ml prior or during hypoxic period, p<0.01",50%
same,optimum concentration for reducing cell death (MTT and LDH assays),"AGS cells [1]; PSTI 5, 10 or 15 μg/ml given 1 h prior to H/R",10 µg/mL
same,effect on cell viability / cell death after H/R vs serum free medium,AGS cells [1]; PSTI added before (or during) H/R,reduced hypoxia-reoxygenation-induced cell death; also recorded: significantly increased % cell viability
same,cell viability of cells not exposed to H/R,AGS cells [1]; [4],no change in viability or LDH; also recorded: no change in viability
same,cell migration,[2],stimulate cell migration
same,proliferation,[2],not proliferation
same,reduction of the rise in LDH,"AGS cells [3]; AGS, 4 h hypoxia + 24 h reperfusion, PSTI 10 μg/ml 1 h before hypoxia",37%±2%
same,effect on cell damage (LDH activity) after H/R vs serum free medium,AGS cells [3]; PSTI added before H/R,significantly decreased cell damage
same,LDH of cells not exposed to H/R,AGS cells [3]; [4],no change in viability or LDH; also recorded: no change in % LDH levels
